Measured values taken from US20210198277A1, “AMINE-SUBSTITUTED ARYL OR HETEROARYL COMPOUNDS” (Epizyme, Inc., priority 2016, published 2021).

Biological target: T1, human EHMT2 913-1193 (Homo sapiens, UniProt Q96KQ7)
T1 construct: recombinant purified human EHMT2 913-1193, Viva; purchased Viva
T1 sequence (Q96KQ7 913-1193): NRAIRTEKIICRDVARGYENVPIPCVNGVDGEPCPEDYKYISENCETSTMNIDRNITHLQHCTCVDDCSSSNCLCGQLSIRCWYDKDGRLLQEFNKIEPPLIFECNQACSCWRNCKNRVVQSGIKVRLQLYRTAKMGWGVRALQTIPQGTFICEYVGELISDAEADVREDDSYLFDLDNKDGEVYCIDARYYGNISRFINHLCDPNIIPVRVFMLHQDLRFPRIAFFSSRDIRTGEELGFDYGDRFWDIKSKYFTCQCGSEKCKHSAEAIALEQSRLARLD
Test: EHMT2 enzyme assay on histone peptide substrate (EHMT2 PEP)
Format: biochemical
Conditions: recombinant human EHMT2 913-1193, histone H3 1-15 peptide, balanced conditions; read-out: EHMT2 PEP (IC50 μM)
Summary of the method: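 10-pt 3-fold series, 50 μM top final, 2% DMSO; 30 min preinc w/ 0.031 nM enzyme; pH 7.5 Bicine/TCEP buffer; ^3H-SAM + biotin-histone peptide, 60 min RT; SAM quench; streptavidin Flashplate capture, TopCount.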

Compared with `CNc1ccnc(Nc2cc(OCCCN3CCCC3)c3cn[nH]c3c2)n1` [Compound 538, N^4-methyl-N^2-(4-(3-(pyrrolidin-1-yl)propoxy)-1H-indazol-6-yl)pyrimidine-2,4-diamine], `CNc1ccnc(Nc2cc(OCCCN3CCCC3)c3[nH]ncc3c2)n1` [Compound 539] is higher in IC50: 0.1 to 1 µM for the first, 1 to 10 µM for the second. The first is the more potent here.

`CNc1ccnc(NC2CCCNC2)n1` (stereo not drawn) [Compound 541, N^4-methyl-N^2-(piperidin-3-yl)pyrimidine-2,4-diamine] and `CNc1ccnc(NC2CCNCC2)n1` [Compound 542, N^4-methyl-N^2-(piperidin-4-yl)pyrimidine-2,4-diamine] cannot be ordered by IC50: > 10 µM for the first, > 10 µM for the second.

`CCCC1(Nc2nccc(NC)n2)CCCNC1` (stereo not drawn) [Compound 544] and `CCCC1(Nc2nccc(NC)n2)CCNCC1` [Compound 545] cannot be ordered by IC50: > 10 µM for the first, > 10 µM for the second.

`CNc1ccnc(NC2(C)CCCNC2)n1` (stereo not drawn) [Compound 546, N^4-methyl-N^2-(3-methylpiperidin-3-yl)pyrimidine-2,4-diamine] and `CNc1ccnc(NC2(C)CCNCC2)n1` [Compound 547, N^4-methyl-N^2-(4-methylpiperidin-4-yl)pyrimidine-2,4-diamine] cannot be ordered by IC50: > 10 µM for the first, > 10 µM for the second.

`CNc1ccnc(N[C@@H]2CC[C@H](N)C2)n1` [Compound 548, N^2-((1R,3S)-3-aminocyclopentyl)-N^4-methylpyrimidine-2,4-diamine] and `CCCCN1CCCC(C)(Nc2nccc(NC)n2)C1` (stereo not drawn) [Compound 549, N^2-(1-butyl-3-methylpiperidin-3-yl)-N^4-methylpyrimidine-2,4-diamine] cannot be ordered by IC50: > 10 µM for the first, > 10 µM for the second.

First: CCCCN1CCC(C)(Nc2nccc(NC)n2)CC1 [Compound 550, N^2-(1-butyl-4-methylpiperidin-4-yl)-N^4-methylpyrimidine-2,4-diamine]
Second: CNc1cc(C)nc(Nc2ccc(OC)c(OCCCN3CC4(CC4)C3)c2)n1 [Compound 574]
The IC50 of the first is higher: > 10 µM for the first, 1 to 10 µM for the second. The second is the more potent here.

`CNc1cc(C)nc(Nc2ccc(OC)c(OCCCN(C)C3CCC3)c2)n1` [Compound 551, N^2-(3-(3-(cyclobutyl(methyl)amino)propoxy)-4-methoxyphenyl)-N^4,6-dimethylpyrimidine-2,4-diamine] and `CNc1cc(C)nc(Nc2ccc(OC)c(OCC3CN(C4CCC4)C3)c2)n1` [Compound 576] fall in the same range of IC50: 0.1 to 1 µM for the first, 0.1 to 1 µM for the second.

`c1nc(NC2CCNCC2)ncc1OCCCN1CCCC1` [Compound 552] and `CN1CCC(COc2cnc(NC3CCNCC3)nc2)C1` (stereo not drawn) [Compound 555] cannot be ordered by IC50: > 10 µM for the first, > 10 µM for the second.

`CN1CCC(COc2cnc(NCC3CCOCC3)nc2)C1` (stereo not drawn) [Compound 553] and `c1nc(NC2CCOCC2)ncc1OCC1CCN(C2CC2)C1` (stereo not drawn) [Compound 557] cannot be ordered by IC50: > 10 µM for the first, > 10 µM for the second.

`CN1CCC(COc2ccc(NC3CCNCC3)nc2)C1` (stereo not drawn) [Compound 554] and `c1nc(NC2CCNCC2)ncc1OCC1CCN(C2CC2)C1` (stereo not drawn) [Compound 556] cannot be ordered by IC50: > 10 µM for the first, > 10 µM for the second.

`CNc1cc(C)nc(Nc2cnc(OC)c(OC[C@H]3CCN(C4CC4)C3)c2)n1` [Compound 558] and `CCN1CC[C@@H](COc2cc(Nc3nc(C)cc(NC)n3)cnc2OC)C1` [Compound 599] fall in the same range of IC50: 0.1 to 1 µM for the first, 0.1 to 1 µM for the second.

First: CNc1cc(C)nc(Nc2ccc(OC)c(OCC3CN(C(C)C)C3)c2)n1 [Compound 559]
Second: CCN1CC[C@@H](COc2cc(Nc3nc(C)cc(NC)n3)ccc2OC)C1 [Compound 571]
The IC50 of the first is higher: 0.1 to 1 µM for the first, < 0.1 µM for the second. The second is the more potent here.

First: CCN1CC(C(O)Oc2cc(Nc3nc(C)cc(NC)n3)ccc2OC)C1 (stereo not drawn) [Compound 560]
Second: CCN1CC(C(C#N)Oc2cc(Nc3nc(C)cc(NC)n3)ccc2OC)C1 (stereo not drawn) [Compound 562]
The IC50 of the first is lower: 0.1 to 1 µM for the first, 1 to 10 µM for the second. The first is the more potent here.

Going from `CNc1cc(C)nc(Nc2ccc(OC)c(O)c2)n1` [Compound 561] to `CNc1cc(C)nc(Nc2ccc(OC)c(OC[C@@H]3CCNC3)c2)n1` [Compound 600], the IC50 falls from > 10 µM to < 0.1 µM.

Compared with `CNc1cc(C)nc(Nc2ccc(OC)c(OC[C@@H]3CCN(C4CCC4)C3)c2)n1` [Compound 563], `CNc1cc(C)nc(Nc2ccc(OC)c(OCC3CN(C4CCCC4)C3)c2)n1` [Compound 577] is higher in IC50: < 0.1 µM for the first, 1 to 10 µM for the second.

First: CCN1CC(COc2cc(Nc3nccc4[nH]ccc34)ncc2OC)C1 [Compound 564]
Second: CCN1CC(COc2cc(Nc3cccc4nncn34)ncc2OC)C1 [Compound 584]
The IC50 of the first is lower: < 0.1 µM for the first, > 10 µM for the second. The first is the more potent here.

`COc1cc(Nc2nc(C)cc3[nH]ncc23)ncc1OCCCN1CCCC1` [Compound 565] and `COc1cnc(Nc2cc(C)nc3[nH]ncc23)cc1OCCCN1CCCC1` [Compound 596] fall in the same range of IC50: 1 to 10 µM for the first, 1 to 10 µM for the second.

`CCN1CC(COc2cc(Nc3cc(NC)ncc3F)ncc2OC)C1` [Compound 566] and `CCN1CC(COc2cc(Nc3cc(NC)nc(C)c3F)ncc2OC)C1` [Compound 567] fall in the same range of IC50: 1 to 10 µM for the first, 1 to 10 µM for the second.

Compared with `CNc1cc(C)nc(Nc2ccc(OC)c(OC[C@@H]3CCN(C4(C)CC4)C3)c2)n1` [Compound 568], `CNc1cc(C)nc(Nc2ccc(OC)c(OCC3CN(C(C)C)C3)c2)n1` [Compound 575] is higher in IC50: 0.1 to 1 µM for the first, 1 to 10 µM for the second. The first is the more potent here.

`CCN1CC(COc2cc(Nc3cc(NC)cc(C)n3)cnc2OC)C1` [Compound 569] and `CCc1cc(NC)nc(Nc2cnc(OC)c(OC[C@@H]3CCN(CC)C3)c2)n1` [Compound 601] fall in the same range of IC50: 0.1 to 1 µM for the first, 0.1 to 1 µM for the second.

First: COc1ccc(NC2CCNCC2)cc1OCCCN1CCCC1 [Compound 572]
Second: COc1cc(NC2CCNCC2)ccc1OCCCN1CCCC1 [Compound 579]
The IC50 of the first is higher: > 10 µM for the first, 1 to 10 µM for the second. The second is the more potent here.

`COc1ccc(NC2CCCNC2)cc1OCCCN1CCCC1` (stereo not drawn) [Compound 573] and `COc1cc(NC2CCCNC2)ccc1OCCCN1CCCC1` (stereo not drawn) [Compound 578] fall in the same range of IC50: 1 to 10 µM for the first, 1 to 10 µM for the second.

First: CNc1cc(C)nc(Nc2ccc(OC)c(OCC3CN(C4CCOC4)C3)c2)n1 (stereo not drawn) [Compound 580]
Second: CCN1CC[C@@H](COc2cc(Nc3nc(C)cc(NC(C)C)n3)ccc2OC)C1 [Compound 602]
The IC50 of the first is higher: > 10 µM for the first, 0.1 to 1 µM for the second.

`COc1cnc(Nc2cccc3[nH]ncc23)cc1OCCCN1CCCC1` [Compound 581] and `COc1cnc(Nc2ccnc3[nH]ncc23)cc1OCCCN1CCCC1` [Compound 583] fall in the same range of IC50: 1 to 10 µM for the first, 1 to 10 µM for the second.

Compared with `COc1ccc(Nc2nccc3[nH]ncc23)cc1OCCCN1CCCC1` [Compound 582], `COc1ccc(Nc2nc(C)cc(NC(C)C)n2)cc1OCCCN1CCCC1` [Compound 603] is lower in IC50: > 10 µM for the first, < 0.1 µM for the second.

First: COc1cnc(Nc2cccc3nccn23)cc1OCCCN1CCCC1 [Compound 585]
Second: COc1cnc(Nc2cccc3cncn23)cc1OCCCN1CCCC1 [Compound 589]
The IC50 of the first is lower: 1 to 10 µM for the first, > 10 µM for the second. The first is the more potent here.

Compared with `COc1cnc(Nc2cccn3ccnc23)cc1OCCCN1CCCC1` [Compound 586], `C/C=C/C(=O)Nc1cc(OCCCN2CCCC2)c(OC)cn1` [Compound 597] is higher in IC50: 1 to 10 µM for the first, > 10 µM for the second. The first is the more potent here.

`COc1cc2c(C3CCN(C)CC3)nc(N(C)C)nc2cc1OCCCN1CCCC1` [Compound 587] and `COc1ccc(Nc2nc(C)cc(NCC3CCOCC3)n2)cc1OCCCN1CCCC1` [Compound 590] cannot be ordered by IC50: < 0.1 µM for the first, < 0.1 µM for the second.

First: CC(C)N1CC(COc2cnc(NC3CCNCC3)nc2)C1 [Compound 588]
Second: COc1ncc(Nc2nc(C)cc(NCC3CCOCC3)n2)cc1OC[C@@H]1CCN(C(C)C)C1 [Compound 592]
The IC50 of the first is higher: > 10 µM for the first, 0.1 to 1 µM for the second. The second is the more potent here.

Compared with `COc1ncc(Nc2nc(C)cc(NCC3CCOCC3)n2)cc1OCCCN1CCCC1` [Compound 591], `COc1ncc(Nc2nc(C)cc(NC(C)C)n2)cc1OCCCN1CCCC1` [Compound 593] is higher in IC50: < 0.1 µM for the first, 0.1 to 1 µM for the second. The first is the more potent here.

Compared with `COc1ncc(Nc2nc(C)cc(NCC3CCOCC3)n2)cc1OC[C@@H]1CCN(C2CCC2)C1` [Compound 594], `C/C=C/C(=O)Nc1ccc(OC)c(OCCCN2CCCC2)c1` [Compound 598] is higher in IC50: 0.1 to 1 µM for the first, > 10 µM for the second. The first is the more potent here.

Compound `COc1ncc(Nc2nc(C)cc(NCC3CCOCC3)n2)cc1OC[C@@H]1CCN(C2CCC2)C1` [Compound 595] has an IC50 of 0.1 to 1 µM.
